Data published in patent US7892764B2, “System for seizure suppression” (priority 2006, dated 2011).

What was measured:
ASICs = molecular target: T1, ASICs (Mus musculus, UniProt Q6NXK8); experiment: Acid (pH 7.0/7.1)-induced membrane depolarization and neuronal firing, current-clamp recording; format: cell-based
T1 construct: Primary neuronal cultures were prepared from embryonic Swiss mice at 15 to 16 days of gestation; endogenous in cells
T1 sequence (Q6NXK8 1-526): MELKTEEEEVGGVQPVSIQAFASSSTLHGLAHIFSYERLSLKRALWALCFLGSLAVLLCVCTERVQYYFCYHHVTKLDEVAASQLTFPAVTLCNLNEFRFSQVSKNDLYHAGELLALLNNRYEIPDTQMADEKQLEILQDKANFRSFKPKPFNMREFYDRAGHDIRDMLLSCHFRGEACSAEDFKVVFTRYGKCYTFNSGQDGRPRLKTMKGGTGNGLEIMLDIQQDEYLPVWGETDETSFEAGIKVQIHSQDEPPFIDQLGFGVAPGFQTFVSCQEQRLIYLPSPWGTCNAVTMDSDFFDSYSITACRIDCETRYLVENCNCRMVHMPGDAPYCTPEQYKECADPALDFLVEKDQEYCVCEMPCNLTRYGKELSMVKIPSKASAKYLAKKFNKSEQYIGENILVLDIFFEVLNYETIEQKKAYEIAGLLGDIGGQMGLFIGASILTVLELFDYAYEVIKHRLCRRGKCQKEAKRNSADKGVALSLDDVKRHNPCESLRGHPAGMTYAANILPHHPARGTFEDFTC
Excerpt: Unlike ischemia, only moderate pH changes (e.g., ˜0.3 pH unit) are reported in brain parenchyma during seizures (Chesler et al., 1988: Chesler et al., 1992), although pH in the synaptic cleft may be much lower (Chesler et al., 1992; Wemmie et al., 2006). […] One possibility is that voltage-clamp recording has relatively low sensitivity to resolve small current in whole-cell configuration. To provide more evidence that the decreases of pHo to the level seen in epilepsy can indeed activate the ASICs and cause neuronal excitation, we have also used current-clamp recording to study changes of membrane depolarization and neuronal firing by small changes of pHo. Due to the large input resistance of most CNS neurons (e.g., ˜500 MΩ), even a small membrane current (e.g., 10-20 pA, which is difficult to resolve in voltage-clamp recording in general) can induce significant membrane depolarization in current-clamp conditions. Mouse cortical neurons were used for current-clamp recordings 14 days after the culture.
Cortical neuronal culture. Primary neuronal cultures were prepared from embryonic Swiss mice at 15 to 16 days of gestation according to our previously described techniques (Xiong et al., 2004). In brief, cerebral cortices from 10 to 12 embryos were dissected and incubated with 0.05% trypsin-EDTA for 10 min, dissociated by trituration with a fire-polished glass pipette, and plated on poly-L-ornithine-coated culture dishes at a density of 0.5×10^6 cells per dish. Neurons were cultured with Neurobasal medium supplemented with B27 (Invitrogen). The cultures were maintained at 37° C. in a humidified 5% CO2 atmosphere incubator and were used for experiments after 12-14 days.
Patch clamp techniques. Whole-cell voltage-clamp and current-clamp recordings were performed as described in our previous studies (Xiong et al., 2004). […] Whole-cell currents were recorded using Axopatch 200B amplifiers with pCLAMP software (Axon Instruments, CA, USA). […]

[1] = test system: cultured mouse hippocampal neurons; experiment: Cell culture model of epilepsy: kynurenic acid (Kyn) withdrawal-induced seizure-like activity, current-clamp recording; format: cell-based
Excerpt: We hypothesized that ASICs are involved in seizure propagation. Using the Furshpan and Potter cell culture model of epilepsy (Meller et al., 2003; Furshpan et al., 1998), we tested ASIC blockade in mouse hippocampal neurons cultured with the glutamate antagonist kynurenate (Kyn) and elevated Mg^2+. In the presence of Kyn, the majority of hippocampal neurons remained quiescent. […] Without amiloride, Kyn withdrawal-induced sustained depolarization of 39.5±2.1 mV and paroxysmal bursts at 4.0±0.5 Hz. With 30 μM amiloride, membrane depolarization was reduced to 28.6±2.7 mV (p<0.05, n=5) and burst activity reduced to 2.5±0.4 Hz (p<0.01, FIGS. 3C and 3D). Similarly, application of PcTX1 reduced membrane depolarization from 30.2±3.7 mV to 10.7±1.8 mV (n=8, p<0.01) and burst activity from 5.5±0.6 Hz to 1.2±0.3 Hz (n=9, p<0.01, FIGS. 3C, 3D, and 4).
Cell culture model of epilepsy. Long term cell culture model of epilepsy was performed as described (Furshpan et al., 1989; Meller et al., 2003). Briefly, hippocampal neurons prepared from 1-2 day-old C57BL/6 mice cultured in Neurobasal-A/B27 media supplemented with 10 mM Kyn and 5 mM MgCl2. Culture media was replenished with fresh kynurenic acid/Mg^2+ every 3 days. Cells were used for patch-clamp recording after 3 to 4 weeks. Following the formation of a tight seal in a whole-cell configuration, neurons were current-clamped at ˜−60 mV. In the presence of Kyn, the majority of hippocampal neurons remained quiescent. […] The spontaneous electrical behavior of the culture has many of the characteristics of seizure activity in an intact cortex. This system allows seizure-related cellular mechanisms to be studied in long-term cell culture.
Patch clamp techniques. Whole-cell voltage-clamp and current-clamp recordings were performed as described in our previous studies (Xiong et al., 2004). Patch electrodes were constructed from thin-welled borosilicate glass (1.5 mm diameter, WPI, Sarasota, Fla., USA) on a two-stage puller (PP83 Narishige, Tokyo). The resistances of patch electrodes were 1.5-3 MΩ when filled with the intracellular solution (see below). Whole-cell currents were recorded using Axopatch 200B amplifiers with pCLAMP software (Axon Instruments, CA, USA). Data were filtered at 2 kHz and digitized at 5 kHz using Digidata 1322 (Axon Instruments). During each experiment, a voltage step of −10 mV was applied periodically to monitor the cell capacitance and the access resistance. A multi-barrel perfusion system (SF-77, Warner Instrument Co., Conn., USA) was employed to achieve a rapid exchange of solutions. All experiments were performed at room temperature (22-24° C.).

[2] = 30 μM amiloride, perfused 2 min before and during Kyn withdrawal
[3] = PcTX1 (venom 200 ng/mL total protein per FIG. 4 legend)

NC(N)=NC(=O)c1nc(Cl)c(N)nc1N [amiloride, 3,5-diamino-6-chloro-N(diaminomethylidene)pyrazine-2-carboxamide]
effect on acid-induced neuronal excitation (membrane depolarization, firing rate) (ASICs; pH 7.0, amiloride 100 μM or synthetic PcTX1 20 nM): largely and significantly reduced | Kyn withdrawal-induced paroxysmal burst activity (frequency) [1, 2]: 2.5±0.4 Hz | Kyn withdrawal-induced sustained membrane depolarization [1, 2]: 28.6±2.7 mV

Psalmotoxin 1 [PcTX1]
effect on acid-induced depolarization and firing of action potentials (ASICs; pH 7.1): sensitive to PcTX1 inhibition | Kyn withdrawal-induced burst activity (frequency) [1, 3]: 1.2±0.3 Hz | Kyn withdrawal-induced membrane depolarization [1, 3]: 10.7±1.8 mV
